{
  "source": "ChEMBL document CHEMBL5390231",
  "about": "“Development of small molecule inhibitors targeting RNA helicase DHX33 as anti-cancer agents” (Bioorg Med Chem Lett, 2023)",
  "key": {"[1]": {"molecular_target": "T1, ATP-dependent RNA helicase DHX33 (Mus musculus, UniProt Q80VY9)", "T1 sequence (Q80VY9 whole entry)": "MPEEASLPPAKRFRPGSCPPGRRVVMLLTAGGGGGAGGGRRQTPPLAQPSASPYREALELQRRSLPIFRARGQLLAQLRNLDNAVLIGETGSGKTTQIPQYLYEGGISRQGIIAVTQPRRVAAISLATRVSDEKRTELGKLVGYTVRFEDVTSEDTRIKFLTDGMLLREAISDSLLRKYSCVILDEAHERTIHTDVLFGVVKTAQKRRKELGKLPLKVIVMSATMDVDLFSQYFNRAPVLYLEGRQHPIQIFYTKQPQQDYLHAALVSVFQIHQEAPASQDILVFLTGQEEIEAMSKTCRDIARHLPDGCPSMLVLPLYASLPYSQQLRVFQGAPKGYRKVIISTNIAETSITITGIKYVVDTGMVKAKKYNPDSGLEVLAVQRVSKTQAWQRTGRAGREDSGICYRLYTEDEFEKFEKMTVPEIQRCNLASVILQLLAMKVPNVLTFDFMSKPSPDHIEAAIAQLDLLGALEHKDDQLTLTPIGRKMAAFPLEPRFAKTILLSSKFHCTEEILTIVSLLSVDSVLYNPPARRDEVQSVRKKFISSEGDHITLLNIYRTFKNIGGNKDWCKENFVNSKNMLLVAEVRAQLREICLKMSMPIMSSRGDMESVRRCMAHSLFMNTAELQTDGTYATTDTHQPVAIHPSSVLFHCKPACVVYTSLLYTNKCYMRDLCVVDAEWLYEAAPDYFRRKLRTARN", "assay": "Inhibition of N-terminal/C-terminal 6x His-tagged wild type recombinant mouse DHX33 transformed in Escherichia coli BL21(DE3)pLysS cells"}, "[2]": {"molecular_target": "T2, Probable ATP-dependent RNA helicase DDX59 (Homo sapiens, UniProt Q5T1V6)", "T2 sequence (Q5T1V6 whole entry)": "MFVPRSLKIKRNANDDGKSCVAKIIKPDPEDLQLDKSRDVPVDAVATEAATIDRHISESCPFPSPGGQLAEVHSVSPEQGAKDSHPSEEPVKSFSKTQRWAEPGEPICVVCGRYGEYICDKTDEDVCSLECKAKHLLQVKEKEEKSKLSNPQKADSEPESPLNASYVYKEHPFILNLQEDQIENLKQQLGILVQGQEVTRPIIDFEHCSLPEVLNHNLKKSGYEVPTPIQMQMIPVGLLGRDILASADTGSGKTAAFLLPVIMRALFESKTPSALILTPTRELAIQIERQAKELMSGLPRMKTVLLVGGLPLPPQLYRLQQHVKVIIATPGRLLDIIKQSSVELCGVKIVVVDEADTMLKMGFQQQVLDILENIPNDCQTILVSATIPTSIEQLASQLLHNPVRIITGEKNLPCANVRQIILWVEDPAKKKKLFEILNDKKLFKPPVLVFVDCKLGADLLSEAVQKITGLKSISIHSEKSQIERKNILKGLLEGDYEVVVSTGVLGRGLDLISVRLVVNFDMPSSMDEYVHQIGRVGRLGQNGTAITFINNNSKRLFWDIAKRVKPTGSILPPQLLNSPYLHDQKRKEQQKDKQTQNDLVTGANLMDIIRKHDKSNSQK", "assay": "Inhibition of C-terminal 6xHis-tagged human recombinant DDX59 transformed in Escherichia coli BL21(DE3)pLysS cells"}, "U-251": {"test_system": "U-251", "assay": "Antiproliferative activity against human U-251MG cells overexpressing DHX33 assessed as inhibition of cell growth measured after 48 hrs by CCK-8 assay", "format": "functional, cell-based", "settings": "U-251, 48 h"}, "Nucleolar RNA helicase 2": {"molecular_target": "T3, Nucleolar RNA helicase 2 (Homo sapiens, UniProt Q9NR30)", "T3 sequence (Q9NR30 whole entry)": "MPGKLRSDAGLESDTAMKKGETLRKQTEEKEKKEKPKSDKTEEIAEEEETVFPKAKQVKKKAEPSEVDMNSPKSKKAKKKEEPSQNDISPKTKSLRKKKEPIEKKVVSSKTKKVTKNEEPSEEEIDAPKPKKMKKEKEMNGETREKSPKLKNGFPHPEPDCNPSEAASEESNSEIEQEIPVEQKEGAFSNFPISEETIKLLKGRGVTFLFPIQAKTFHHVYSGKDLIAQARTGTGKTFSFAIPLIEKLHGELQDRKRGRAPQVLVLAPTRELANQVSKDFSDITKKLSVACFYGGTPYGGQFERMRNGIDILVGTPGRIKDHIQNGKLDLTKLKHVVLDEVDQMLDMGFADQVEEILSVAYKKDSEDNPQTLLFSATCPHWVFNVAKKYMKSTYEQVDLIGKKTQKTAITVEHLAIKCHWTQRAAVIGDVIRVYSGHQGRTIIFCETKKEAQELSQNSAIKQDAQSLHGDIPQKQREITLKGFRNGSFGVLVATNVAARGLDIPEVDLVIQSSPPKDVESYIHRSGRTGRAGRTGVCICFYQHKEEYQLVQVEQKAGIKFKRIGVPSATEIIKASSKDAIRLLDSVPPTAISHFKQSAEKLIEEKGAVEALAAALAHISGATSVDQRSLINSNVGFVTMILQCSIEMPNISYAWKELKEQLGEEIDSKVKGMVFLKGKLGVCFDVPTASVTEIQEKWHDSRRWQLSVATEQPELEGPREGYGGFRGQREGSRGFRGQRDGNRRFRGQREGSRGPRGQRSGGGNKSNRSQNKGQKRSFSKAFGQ", "assay": "Inhibition of N-terminal thioredoxin-tagged human recombinant DDX21 transformed in Escherichia coli BL21(DE3)pLysS cells"}, "[3]": {"assay": "Microsomal stability in human liver microsome assessed as intrinsic clearance", "format": "ADME", "settings": "liver microsomes, read-out: CLH"}, "[4]": {"molecular_target": "ATP-dependent RNA helicase DHX15 (Homo sapiens, UniProt O43143)", "sequence (O43143 whole entry)": "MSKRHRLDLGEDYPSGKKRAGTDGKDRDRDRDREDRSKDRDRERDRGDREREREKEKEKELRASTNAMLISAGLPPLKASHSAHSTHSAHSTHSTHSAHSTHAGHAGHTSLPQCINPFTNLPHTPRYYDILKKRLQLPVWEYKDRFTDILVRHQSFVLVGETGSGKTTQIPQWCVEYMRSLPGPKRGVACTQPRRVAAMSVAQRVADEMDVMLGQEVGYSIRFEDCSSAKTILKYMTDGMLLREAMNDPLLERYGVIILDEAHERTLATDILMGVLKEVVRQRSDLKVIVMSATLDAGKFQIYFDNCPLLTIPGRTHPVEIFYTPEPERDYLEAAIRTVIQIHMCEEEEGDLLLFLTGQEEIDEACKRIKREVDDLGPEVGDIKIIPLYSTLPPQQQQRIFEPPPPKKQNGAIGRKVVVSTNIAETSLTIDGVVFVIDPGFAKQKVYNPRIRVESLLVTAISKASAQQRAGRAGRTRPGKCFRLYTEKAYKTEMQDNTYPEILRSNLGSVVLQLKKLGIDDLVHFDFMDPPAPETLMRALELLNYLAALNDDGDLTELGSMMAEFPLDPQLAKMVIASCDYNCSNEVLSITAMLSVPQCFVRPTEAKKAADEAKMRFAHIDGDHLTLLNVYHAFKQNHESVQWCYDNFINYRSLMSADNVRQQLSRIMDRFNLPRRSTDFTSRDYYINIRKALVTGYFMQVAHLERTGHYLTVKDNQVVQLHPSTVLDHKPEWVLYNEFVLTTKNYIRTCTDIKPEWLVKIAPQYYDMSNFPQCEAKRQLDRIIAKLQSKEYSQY", "assay": "Inhibition of N-terminal thioredoxin-tagged human recombinant DHX15 transformed in Escherichia coli BL21(DE3)pLysS cells"}},
  "data": [
    {"smiles": "COc1ccc2nc(NC(=O)c3cc(C)n(-c4sc(C)cc4C#N)c3C)[nH]c2c1", "values": [
      {"measurement": "IC50", "setting": "[1]", "value": 0.019, "unit": "µM"},
      {"measurement": "IC50", "setting": "[2]", "value": "> 100", "unit": "µM"},
      {"measurement": "IC50", "setting": "U-251", "value": 0.02, "unit": "µM"},
      {"measurement": "IC50", "setting": "Nucleolar RNA helicase 2", "value": "> 100", "unit": "µM"},
      {"measurement": "CLint scaled", "setting": "[3]", "value": 22.4, "unit": "mL/min/kg"},
      {"measurement": "IC50", "setting": "[4]", "value": 6.3, "unit": "µM"}
    ]}
  ]
}
